Laboratory results: the METLIN SMRT retention time set (Domingo-Almenara et al. 2019)

Assay: gradient 5% acetonitrile 3 min, to 50% in 2 min, to 85% in 15 min, held 3 min, 100 µL/min
Conditions: column: Zorbax Extend-C18 2.1 x 50 mm; eluents: water / acetonitrile, 0.1% formic acid
Procedure, shortened: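 Retention time was recorded from adduct peaks, which were picked computationally and each inspected manually. Pure standards ran in mixtures of ~100 molecules on HPLC coupled to a quadrupole time-of-flight mass spectrometer, in positive and negative ionization mode, through a Zorbax Extend-C18 column (2.1 × 50 mm, 1.8 μm) at 100 μL/min. Eluents were water and acetonitrile, each with 0.1% formic acid.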

| RP-LC retention time | Structure (SMILES) |
| --- | --- |
| 686 s | Cn1c(=O)n([C@H]2CCN(C(=O)Nc3ccc4c(c3)OCCO4)C2)c2ncccc21 |
| 1130 s | CCn1nccc1-c1cccc(-c2noc(-c3cccs3)n2)c1 |
| 874 s | CCc1nc(-c2nnn(-c3ccc(F)cc3)c2C)no1 |
| 827 s | COc1ccc(-c2noc(-c3nn(-c4ccc(C)cc4)ccc3=O)n2)cc1OC |
| 766 s | C=Cc1ccc(CN2CCCN(c3ncccc3-c3nc(CCC)no3)CC2)cc1 |
| 651 s | CNC(=O)c1nn(-c2ccc(F)c(F)c2)c(OC)cc1=O |
| 659 s | CN(C)C(=O)c1cccc(COc2ccc(N3C(N)=NC(N)=NC3(C)C)cc2Cl)c1 |
| 925 s | O=C1C2N=NN(c3cccc(F)c3)C2C(=O)N1c1ccccc1 (configuration not stated) |
| 762 s | Cc1nnc(N2CCCC(C(=O)NCCc3cccs3)C2)c2nn(-c3ccc(Cl)cc3)c(C)c12 (configuration not stated) |
| 885 s | N#Cc1cnc2ccc(F)cc2c1N1CCC(C(=O)Nc2ccc(F)cc2)CC1 |
| 660 s | Cn1cc(CCN2CCN(S(=O)(=O)c3ccc(F)c(Cl)c3)CC2)c2cccnc21 |
| 873 s | COC(=O)c1ccccc1S(=O)(=O)N1CCc2c(c(-c3nnc(-c4ccccc4F)o3)nn2C)C1 |
| 1030 s | O=c1c2nc(-c3ccc(F)cc3F)cn2ccn1-c1ccc2c(c1)CCC2 |
| 895 s | O=C(Cc1cc(-c2ccc3c(c2)OCCO3)on1)N1CCN(c2ccccc2F)CC1 |
| 744 s | COc1ccc(NC(=O)C2c3cc(OC)c(OC)cc3C(=O)N3CCc4ccccc4C23)cc1OC (configuration not stated) |
| 928 s | O=C(CCn1nnc2cc(-c3noc(-c4cccc(F)c4)n3)ccc21)N1CCCC1 |
| 1090 s | COc1cc(OC)cc(N2C(=O)C3N=NN(Cc4nc(-c5ccc(OC(C)C)cc5)no4)C3C2=O)c1 (configuration not stated) |
| 1100 s | O=C1CC(c2noc(-c3cc(Cl)ccc3F)n2)CN1c1ccc(F)cc1 (configuration not stated) |

| RP-LC retention time | Structure (SMILES) |
| --- | --- |
| 828 s | Cc1ccc(CNC(=O)N2CCc3c(c(-c4nc(C5CC5)no4)nn3C)C2)cc1 |
| 895 s | Cc1ccc(NC(=O)Cn2c(=O)nc(N3CCCC(C)C3)c3ccccc32)cc1C (configuration not stated) |
| 900 s | CS(=O)(=O)c1ccc(Sc2nc3ccccc3s2)c([N+](=O)[O-])c1 |
| 824 s | Cc1ccccc1CN1C[C@@H]2C(=O)N(Cc3ccc4c(c3)OCO4)C(=O)[C@@H]2C1 |
| 981 s | O=C(NCc1ccccc1)c1cccn1Cc1noc(-c2ccccc2)n1 |
| 996 s | Cc1ccc(C)c(NS(=O)(=O)c2ccc(-c3c(C)noc3C)cc2)c1 |
| 789 s | Cc1ccc2c(c1)C(O)(CC(=O)c1cccc(Br)c1)C(=O)N2 (configuration not stated) |
| 956 s | CN(C(=O)CSc1cc(NCc2ccc(Cl)cc2)ncn1)C1CCCCC1 |
| 698 s | CS(=O)(=O)N(Cc1ccncc1)C1CN(C(=O)c2ccc3ncccc3c2)C1 |
| 963 s | CCc1nc(-c2csc(S(=O)(=O)N3CCC(C(=O)Nc4ccc(F)cc4C)CC3)c2)no1 |
| 801 s | CCc1nnc(-c2ccc3ccn(CC(=O)NCc4ccc(F)cc4)c3c2)o1 |
| 1200 s | O=C(Nc1cc(F)ccc1F)c1cc2sccc2n1Cc1ccc(F)cc1 |
| 878 s | O=C(c1ccc2c(=O)n3c(nc2c1)CCCC3)N1CCC(Cc2ccccc2)CC1 |
| 863 s | Cc1ccc(CNC(=O)c2nnc(-c3ccc(S(=O)(=O)N4CCOCC4)cc3)o2)cc1 |
| 935 s | Cc1nn2c(CNS(=O)(=O)Cc3cccc(F)c3)c(-c3ccccc3)nc2s1 |
| 760 s | COC(=O)c1ncn2c1C(=O)N(Cc1cccc(F)c1)C(C)(C(=O)NCc1ccc(C)cc1)C2 (configuration not stated) |
| 1110 s | Cc1cccc(-c2nc(C3CCN(S(=O)(=O)c4ccc(F)cc4)CC3)no2)c1 |

Continued, compound first:

| Structure (SMILES) | RP-LC retention time |
| --- | --- |
| COc1ccccc1CNC(=O)Cn1cncc(C)c1=O | 618 s |
| O=C(CN1CCN(C(=O)Nc2ccc(Br)cc2)CC1=O)NCc1ccccn1 | 615 s |
| COC(=O)c1cn(Cc2c(F)cccc2Cl)nc1S(=O)(=O)N(C)c1ccccc1 | 718 s |
| Cc1ccccc1N1CCN(Cc2nc(-c3ccc(N4CCSCC4)nc3)no2)CC1 | 801 s |
| COC(=O)c1ccc(NC(=O)N(Cc2cc(=O)[nH]c3ccccc23)CC(C)C)cc1 | 830 s |
| CC(C)CCNC(=O)C1CCN(c2nc3ccc(-c4cncnc4)nc3s2)CC1 | 824 s |
| CC1=C(c2ccccc2)S(=O)(=O)N=C1N1CCCN(C(=O)Nc2ccccc2F)CC1 | 811 s |
| CC(C)n1cnc2cc(CNC(=O)c3ccc(C#N)cc3)ccc21 | 619 s |
| CN(C)C(=O)c1n[nH]c2c1CN(C(=O)c1cccc(C(F)(F)F)c1)CC2 | 673 s |
| CCOc1cccc(CNC(=O)c2c(C)sc3ccn(CC)c(=O)c23)c1 | 856 s |
| CCCn1cc(S(=O)(=O)Nc2cc(C)ccc2F)c2cccnc21 | 921 s |
| CC(C)CC(NC(=O)OCc1ccccc1)C(=O)NC(Cc1c[nH]c2ccccc12)C(=O)O (configuration not stated) | 926 s |
| CC(C)Cc1cc(-c2nn3c(-c4ccc(Br)cc4)nnc3s2)n[nH]1 | 1150 s |
| COc1cccc(CNC(=O)C2(C)CCCN(C(=O)Nc3ccc(C)cc3)C2)c1 (configuration not stated) | 898 s |
| CCOCCCNC(=O)CN1C(=O)C2CCCCN2c2ccc(S(=O)(=O)N3CCCC3)cc21 (configuration not stated) | 819 s |
| O=C(c1ccsc1)N1CCC(N(C(=O)Cc2ccccc2)C2CCOCC2)CC1 | 774 s |
| COc1ccc(S(=O)(=O)N2CCC(c3cc4n(n3)CCCN(C)C4=O)CC2)cc1 | 720 s |
| CCC(=O)N1CCc2ccccc2C1C(=O)NCc1ccc2c(c1)OCO2 (configuration not stated) | 761 s |
| CC1=NS(=O)(=O)N(C)C=C1C(=O)OCc1nc(-c2ccccc2C)no1 | 1000 s |
| Cc1ccc(NC(=O)C2CCCN(c3ncnc4c3nc3n4CCCCC3)C2)nc1 (configuration not stated) | 699 s |
| CC(C)N1C(=O)Cc2ccccc2C1C(=O)N1CCN(c2ccccc2)CC1 (configuration not stated) | 855 s |
| O=C(NC1CC1)c1nc(C(=O)N2CCN(c3ccccc3)CC2)cs1 | 759 s |
| Cc1ccc(NC(=O)Cn2nc3c(Oc4ccccc4C)nccn3c2=O)c(C)c1 | 873 s |
| CN(CC(=O)NC1CCCCC1)S(=O)(=O)c1c[nH]c(C(=O)N2CCCC2)c1 | 722 s |
| N#Cc1ccsc1NC(=O)c1cccc(Cl)c1 | 861 s |
| CCCN(CC1CC1)C(=O)CCC1CCCN(S(=O)(=O)c2ccc(C)cc2)C1 (configuration not stated) | 1120 s |

| Structure (SMILES) | RP-LC retention time |
| --- | --- |
| COC(=O)c1cccc(C(=O)Nc2ccccc2)n1 | 800 s |
| CCn1cc(C(=O)Nc2ccc(C)cc2Cl)c2cccnc21 | 984 s |
| CC1(C)CC[C@]2(C(=O)n3ccnc3)CC[C@]3(C)[C@H](C(=O)C=C4[C@@]5(C)C=C(C#N)C(=O)C(C)(C)[C@@H]5CC[C@]43C)[C@@H]2C1 | 1260 s |
| Cc1ccc(-c2nnc(N3CCC(C(=O)N4CCC5(CC4)OCCO5)CC3)o2)cc1 | 755 s |
| Cc1ccccc1NC(=O)N1C[C@@H](F)C[C@H]1C(=O)N1CCc2ccccc2C1 | 780 s |
| CCNC(=O)C1CCN(C(=O)N2C[C@H]3C[C@H](C2)[C@H]2CCCC(=O)N2C3)CC1 | 599 s |
| CC(C)NC(=O)N1CCC2(CC1)NCCc1c2[nH]c2ccccc12 | 618 s |
| Cc1ccc(S(=O)(=O)N2CC3CN(C(=O)C4COc5ccccc5O4)CC(C2)O3)cc1 (configuration not stated) | 928 s |
| Cc1nc2cc(N3CCC(C(=O)NCc4cccs4)CC3)cnc2nc1C | 670 s |
| CCc1ccc(S(=O)(=O)Nc2ccc3c(c2)nc(-c2ccc(C(=O)NC)cc2)n3C)cc1 | 674 s |
| CCCN(C)c1nccn2c(=O)n(CC(=O)Nc3cccc(C(F)(F)F)c3)nc12 | 753 s |
| CCN(C(=O)C1CCN(C(=O)c2cccc(F)c2)CC1)C1CCCCC1 | 855 s |
| Cc1nn(C(C)C(=O)NCCCN(C)Cc2ccccc2)c(=O)c2nn(-c3ccccc3)c(C)c12 (configuration not stated) | 678 s |
| CC(=O)c1ccc(S(=O)(=O)N(Cc2cccs2)Cc2cccn2C)cc1 | 983 s |
| O=C(O)CNC(=O)c1c(O)c2ccccc2n(Cc2ccccc2)c1=O | 989 s |
| Cc1cccc(Cn2c(=O)n(CCNC(=O)CC(C)C)c3ncccc32)c1 | 800 s |
| CCc1cc(-c2csc(S(=O)(=O)N3CCN(C4CCCCC4)CC3)c2)on1 | 723 s |
| COCCN(CCOC)c1nc(-c2ccc([N+](=O)[O-])cc2)nc2ccccc12 | 849 s |
| CCn1cc(C(=O)Nc2ccc(Cl)cc2)c(S(=O)(=O)N2CCSCC2)n1 | 892 s |
| CCOC(=O)CCNC(=O)N1c2ccccc2CC1c1nc(C(C)C)no1 (configuration not stated) | 609 s |
| CCCN(C)C(=O)C1CCN(c2cnn(Cc3ccccc3)c(=O)c2)CC1 | 728 s |
| Cc1cc(=O)n(CC(=O)Nc2ccccc2F)c(N2CCCCC2)n1 | 649 s |
| CC(C)Cn1cc(S(=O)(=O)N2CCSCC2)c2cccnc21 | 969 s |
| CCC(C)NC(=O)c1cc(COc2ccc(NC(=O)C(C)(C)C)cc2)on1 (configuration not stated) | 900 s |
| CCn1cc(C(=O)Nc2ccc(C)cc2)c(S(=O)(=O)N2CCSCC2)n1 | 887 s |
| CCn1cnc(S(=O)(=O)N2CCC(C(=O)NCCC3=CCCCC3)CC2)c1 | 761 s |
